Measured values as given in patent US20080139623A1, “Amorphous and crystalline forms of pantoprazole magnesium salt” (priority 2006, published 2008).

Legend:
Format in all cases: physicochemical
[1] = Solubility in water at 25° C. (saturated solution, HPLC assay); conditions: for solubility: in water at 25° C.
Experimental: The solubilities of amorphous pantoprazole magnesium and pantoprazole magnesium Form A were each measured in water at 25° C. The certain amount of amorphous sample and form A sample were added each to 50 ml of distillated water. The solutions were kept saturated during the experiment. The aliquots were taken, filtered and injected into HPLC by the method of assay determination for PNT-Mg and the concentrations were calculated by comparison of absorptions at certain wavelength against the known concentration of PNT-Mg standard.

[2] = Stability of crystalline form under heating (100° C., two weeks, PXRD); conditions: heated at 100° C. for two weeks, analyzed by PXRD
Experimental: The powder X-ray diffraction was performed on Scintag X-ray powder diffractometer model X'TRA with a solid state detector. Copper radiation of 1.5418 Å was used. The sample holder was a round standard aluminum sample holder with rough zero background. The scanning parameters were range: 2-40 degrees two-theta; scan mode: continuous scan; step size: 0.05 deg.; and at a rate of 5 deg/min.
Samples of crystalline pantoprazole magnesium Form C and Form A (prepared according to example 15) were each heated at 100° C. for two weeks. The samples were then analyzed by PXRD.

[3] = Analysis of particle size by light microscope in light oil
From the text: Samples of crystalline pantoprazole magnesium Forms A (prepared according to example 15), E, F, G, and H were each analyzed by light microscope in light oil. The results are depicted in FIGS. 29-33, respectively.

| Substance | particle shape / description [3] | particle size [3] | other results |
| --- | --- | --- | --- |
| 5-difluoromethoxy-2-[[3,4-dimethoxy-2-pyridinyl)methyl]sulfinyl]-1H-benzimidazole magnesium salt [Form A, reference compound] | plate-shaped particles | less than 50 microns | solubility [1]: about 0.2 mg/ml; crystalline form after heating (polymorphic stability) [2]: transformed to amorphous form |
| 5-difluoromethoxy-2-[[3,4-dimethoxy-2-pyridinyl)methyl]sulfinyl]-1H-benzimidazole magnesium salt [Form C] | – | – | crystalline form after heating (polymorphic stability) [2]: maintained its crystalline form |
| 5-difluoromethoxy-2-[[3,4-dimethoxy-2-pyridinyl)methyl]sulfinyl]-1H-benzimidazole magnesium salt [Form E] | plate-shaped particles | less than 20 microns | – |
| 5-difluoromethoxy-2-[[3,4-dimethoxy-2-pyridinyl)methyl]sulfinyl]-1H-benzimidazole magnesium salt [Form F] | spherical particles | – | – |
| 5-difluoromethoxy-2-[[3,4-dimethoxy-2-pyridinyl)methyl]sulfinyl]-1H-benzimidazole magnesium salt [Form G] | – | less than 10 microns | – |
| 5-difluoromethoxy-2-[[3,4-dimethoxy-2-pyridinyl)methyl]sulfinyl]-1H-benzimidazole magnesium salt [Form H] | very small particles | – | – |
| 5-difluoromethoxy-2-[[3,4-dimethoxy-2-pyridinyl)methyl]sulfinyl]-1H-benzimidazole magnesium salt [amorphous pantoprazole magnesium] | – | – | solubility [1]: about 1.3 mg/ml; solubility in water relative to crystalline Form A ([1]; in water, amorphous form versus Form A prepared according to the '464 patent): approximately 6.5 times |
